Measured values taken from patent US11571418B2, “Platinum compounds that inhibit constitutive STAT3 signaling and induce cell cycle arrest and apoptosis of malignant cells” (H. LEE MOFFITT CANCER CENTER AND RESEARCH INSTITUTE, INC., priority 2011, dated 2023).

How the values were obtained:
Assay in all cases: TUNEL analysis of apoptosis
Format in all cases: cell-based, mouse
NIH3T3/v-Src = test system: NIH3T3/v-Src
Description: (§1) FIGS. 7A-7C. TUNEL analysis of PLATINUM-401-mediated apoptosis. (FIG. 7A) Normal NIH3T3 fibroblasts and their v-Src-transformed counterparts (NIH3T3/v-Src), human breast carcinoma cell lines (MDA-MB-453, MDA-MB-435, MDA-MB-468, and MDA-MB-231), human non-small cell lung cancer cell line (A549), human prostate cancer cell line (DU145), multiple myeloma 5TGM1 (mouse) and U266 (human) cell lines, mouse melanoma cell line (B16) and human pancreatic cancer cell line (Panc1) were all treated with or without PLATINUM-401 for 48 h and analyzed by TUNEL for DNA damage. For each cell line, the activated Stat3 status is indicated as (−), no constitutively-active Stat3 and (+), constitutively-active Stat3 (see FIG. 5A). Data are representative of 3 independent determinations; (FIG. 7B) Human breast cancer cell lines (MDA-MB-453, MDA-MB-468 and MDA-MB-435) were transfected with or without Stat3β or Stat3 antisense (Stat3AS), or were treated with or without Stat3 peptidomimetic inhibitor, ISS 610 (1 mM) or PLATINUM-401 (5 μM)). Forty-eight hours afterwards, cells were harvested and processed for TUNEL analysis; (FIG. 7C) The viral Src-transformed NIH3T3/v-Src fibroblasts were transfected with or without wild-type Stat3 (pRc/CMV Stat3 Flag) and treated with or without 5 μM PLATINUM-401 for 36 h. Cells were subsequently harvested for nuclear extracts preparation and Stat3 DNA-binding assay in vitro with EMSA analysis (left panel), or were processed for TUNEL analysis (right panel).
(§2) Cell proliferation and TUNEL assays—Proliferating cells were first treated with or without PLATINUM-401 for up to 48 h. A portion of cells were harvested for BrdU incorporation following the manufacturer's (BD Biosciences Pharmingen, San Diego, Calif.) instructions and analyzed by flow cytometry. Harvested cells were also analyzed for apoptosis via detection of TdT-mediated dUTP nick-end labeling (TUNEL) assay using Apoptosis Detection Systems Fluorescein according to the manufacturer's (Roche, Indianapolis, Ind.) instructions. Oligonucleotides and plasmids Transfections. The Stat3 antisense (5′-[…]-3′) (SEQ ID NO:3) or control mismatch oligonucleotides (5′-[…]-3′) (SEQ ID NO:4) were synthesized using phosphorothioate chemistry and were synthesized with 2′-Omethoxyethyl modification of the five terminal nucleotides (underlined; (Mora et al., 2002; Karras et al., 2000)) to increase stability. Transfections of Stat3AS and plasmids were carried out with Lipofectamine 2000 (LF) according to the manufacturer's instructions (Invitrogen, Carlsbad, Calif.). Briefly, cells were seeded at 1-2×10^6 cells/10-cm tissue-culture plates 18 h before transfection. Immediately before transfection, cells were washed once with PBS. Cells were transfected with luciferase reporters (4 μg) in the presence or absence of v-Src (4 μg), or were transfected with Stat3β (4 μg) or pRC/CMV Stat3 Flag (4 μg). Stat3AS transfections were carried out LF alone, or with LF/Stat3 antisense oligonucleotides, or LF/Stat3 mismatch oligonucleotides (final concentration of the oligonucleotides was 250 nM). After 2-3 h, the transfection medium was aspirated and cells washed with PBS before fresh medium added containing 10% FBS was added.
(§3) Cells were analyzed for DNA-strand breaks by TUNEL staining. […] The incidence of apoptosis correlated with the prevalence of constitutively-active Stat3 in malignant cells (FIG. 7, lower panel). […]

B16 = settings: 48 h
Description: as §1, §2, §3

5TGM1 = settings: 48 h
Description: as §1, §2, §3

NIH3T3 = settings: 48 h, no aberrant Stat3 activity
Description: as §1, §2, §3

For `CC(O)CN1CCN(CC(C)O)CC1` (centres unmarked) [PLATINUM-401], the TUNEL staining (NIH3T3/v-Src; 48 h) was “Significant TUNEL staining”, the “compound-mediated apoptosis on overexpression of Stat3” value (NIH3T3/v-Src; NIH3T3/v-Src transfected with wild-type Stat3, 5 μM, 36 h) was “minimizes the extent” and the TUNEL staining (B16) was “Significant TUNEL staining”. For the same compound, the TUNEL staining (5TGM1) was “Significant TUNEL staining” and the TUNEL staining (NIH3T3) was “no TUNEL staining”.
